Data as given in patent US10101319B2, “Methods of detecting plasmodium infection” (Commonwealth Scientific and Industrial Research Organisation, priority 2013, dated 2018).

How the values were obtained:
P. falciparum = details: 13 evaluable volunteers; cited from earlier work
Plasmodium falciparum = experiment: GC-MS analysis of exhaled breath volatiles and PCR parasitaemia, Cohort 1, induced blood stage malaria, treated with OZ439; format: in vivo, human; details: Cohort 1 compared with Cohort 2 (slower acting bisquinoline 4-aminoquinoline)
Experimental: This research was a controlled study using a blood stage Plasmodium falciparum (BSPC) inoculum challenge to characterize the efficacy of two anti-malaria drugs against early Plasmodium falciparum blood stage infection. Investigation of breath volatiles was an “add-on” to the anti-malarial efficacy studies. The study was conducted in two cohorts (n=8 for Cohort 1 and n=7 for Cohort 2) using different anti-malaria drugs. The anti-malaria drug investigated in Cohort 1 was OZ439 and the drug used in Cohort 2 was Piperaquine. OZ439, as an artemisin derivative, is rapidly absorbed, acts rapidly and is short-lived in the body. Piperaquine is absorbed slowly and has a long half-life in the body. […]
Each participant in the cohort was inoculated on Day 0 with ˜1,800 viable Plasmodium falciparum-infected human erythrocytes administered intravenously. On an outpatient basis, participants were monitored daily (AM) or morning (AM) and evening (PM), from day 3 until PCR positive for presence of malaria parasites, for adverse events and the unexpected early onset of symptoms, signs or parasitological evidence of malaria.
On the day designated for commencement of treatment, as determined by qPCR results (usually Day7/8 AM), participants were admitted to the study unit and confined for safety monitoring and anti-malaria drug administration with parasite load and drug levels being monitored. […]

| Molecule | mean parasite reduction ratio (P. falciparum) | Decline in parasitaemia and thioether levels after drug (Plasmodium falciparum) |
| --- | --- | --- |
| atovaquone-proguanil | 17 | – |
| artemether-lumefantrine | 759 | – |
| c1cc([C@H]2CC[C@]3(CC2)OO[C@]2(O3)C3CC4CC(C3)CC2C4)ccc1OCCN1CCOCC1 [OZ439] | – | faster decline in parasitaemia and thioether levels |
